Reference: patent US5578445A, “In vitro method of evaluating the effects of a substance” (priority 1991, dated 1996)

Experiments:
[1] = biological target: T1, estrogen receptor (Homo sapiens, UniProt P03372); assay: pS2 secretion, additional set of experiments, ZR 75-1 in 96-well trays, pS2 RIA; settings: for relative amount of pS2 (no hormone added = 1): zr 75-1 cells, 48 h
T1 sequence (P03372 1-595): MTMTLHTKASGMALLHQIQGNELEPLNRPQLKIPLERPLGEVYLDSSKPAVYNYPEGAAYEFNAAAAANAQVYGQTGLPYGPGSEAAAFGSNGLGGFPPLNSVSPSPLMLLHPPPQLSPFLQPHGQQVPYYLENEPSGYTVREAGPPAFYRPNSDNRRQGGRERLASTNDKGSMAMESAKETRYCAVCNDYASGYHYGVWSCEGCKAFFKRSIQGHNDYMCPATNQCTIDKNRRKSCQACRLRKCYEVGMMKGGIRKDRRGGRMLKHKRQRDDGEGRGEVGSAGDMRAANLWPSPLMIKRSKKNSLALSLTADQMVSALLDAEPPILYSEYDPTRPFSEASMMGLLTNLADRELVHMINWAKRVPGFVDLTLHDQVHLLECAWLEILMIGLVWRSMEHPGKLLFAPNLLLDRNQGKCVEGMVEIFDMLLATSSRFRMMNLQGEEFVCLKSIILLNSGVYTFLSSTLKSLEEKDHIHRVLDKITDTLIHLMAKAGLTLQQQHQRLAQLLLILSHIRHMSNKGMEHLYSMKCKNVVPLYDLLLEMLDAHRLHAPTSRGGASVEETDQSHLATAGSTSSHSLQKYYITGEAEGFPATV
Procedure: (§1) The amount of pS2 secreted into the medium was determined with the aid of a commercial RIA (ELSA pS2 from CIS Bioindustries, Gif-sur-Yvette, France).
(§2) Samples of the cells ZR 75-1 and MCF7, respectively, were distributed into plastic petridishes (suitable for the culturing of mammalian cells).
(§3) Samples of the cells ZR 75-1 ([…]) and MCF7 (2.5×10^4 cells/well), respectively, were distributed in 96-well trays. The cells were distributed in the same medium as used on day 1.
(§4) The wells were washed with 100 μl Coon's medium/well. The first medium was replaced by the second medium (B) without 1% FCS. The following hormone additions were made:
(§5) 48 hours after the hormone addition the number of cells and their morphology were investigated. Medium from each well was transferred to Eppendorf tubes. The possible amount of pS2 in the medium samples was analyzed with the aid of a commercial pS2 RIA (ELSA pS2 ).

[2] = biological target: T1, estrogen receptor; assay: pS2 secretion, additional set of experiments, MCF7 in 96-well trays, pS2 RIA; settings: for relative amount of pS2 (no hormone added = 1): mcf7 cells, 48 h
Procedure: as §1, §2, §3, §4, §5

[3] = biological target: T1, estrogen receptor; assay: Cathepsin D secretion into medium, MCF7 in petridishes, Cath D RIA
Procedure: The experiment was conducted using the human breast cancer cell line MCF7 (ATCC HTB 22). The selected cellular response to be analyzed was the amount of expressed cathepsin D (Cath D), the expression of which is regulated by the estrogen receptor. […] The amount of Cath D secreted into the medium was determined with the aid of a commercial RIA (ELSA-CATH-D from CIS Bioindustries, Gif-sur-Yvette, France). The performance of the method is as follows:
A sample of the cell line MCF7 (4×10^5 cells) was distributed into plastic petridishes (suitable for the culturing of mammalian cells). The cells were suspended in the first medium (C).
The petridishes were incubated at 37° C. and 5% CO2 in a temperature and humidity controlled chamber.
The first medium (C) was replaced by the second medium, which consisted of fresh first medium (C). The following hormone additions were made:
The petridishes were incubated in the temperature and humidity controlled chamber under the same conditions as above.
72 hours after the hormone addition visual inspection of the number of cells and their morphology was performed. Medium from each petridish was transferred to Eppendorf tubes and centrifuged 7 minutes at 1000rpm (Eppendorf centrifuge). The amount of Cath D in the medium samples was analyzed with the aid of the commercial Cath D RIA (ELSA-CATH D)

[4] = biological target: T1, estrogen receptor; assay: Cathepsin D secretion, additional set of experiments, ZR 75-1 in 96-well trays, Cath D RIA
Procedure: (§6) The amount of Cath D secreted into the medium was determined with the aid of a commercial RIA (ELSA-CATD-D from CIS Bio-industries, Gif-sur-Yvette, France).
as §2
(§7) Samples of the cells ZR 75-1 (4×10^4 cells/well) and MCF7 (2.5×10^4 cells/well), respectively, were distributed in 96-well trays. The cells were distributed in the same medium as used on day 1.
as §4
(§8) 48 hours after the hormone addition the number of cells and their morphology were investigated. Medium from each well was transferred to Eppendorf tubes. The possible amount of Cath D in the medium samples was analyzed with the aid of a commercial Cath D RIA (ELSA-CATH-D).

[5] = biological target: T1, estrogen receptor; assay: Cathepsin D secretion, additional set of experiments, MCF7 in 96-well trays, Cath D RIA
Procedure: as §6, §2, §7, §4, §8

[6] = system: ZR 75-1; assay: Proliferation, amount of ATP after 6 days, ZR 75-1; format: cell-based, human
Procedure: The growth is determined by measuring the amount of ATP in the cells after incubation with ligands for 6 days. […]
Samples of the cells ZR 75-1 (8000 cells/well) and MCF7 (4000 cells/well), respectively, were distributed into microtiter plates having 96 wells.
The following hormone additions were made:
The medium was replaced by fresh medium of the same composition as on day 6, and hormone additions as on day 6.
6 days after hormone addition the number of cells and their morphology were investigated. Medium from each well was poured off. To each well was added 100 μl 1% TCA (trichloro acetic acid).

[7] = ZR-75-1, 48 h, read-out: relative amount of pS2 (no hormone added = 1)
[8] = MCF7, 48 h, read-out: relative amount of pS2 (no hormone added = 1)
[9] = 10^-8 M LY 117018, presence of 10^-10 M E2

function on pS2 expression ([1]; ZR 75-1, 10^-8 M LY 117018, presence of 10^-10 M E2): functions as an antagonist
antagonist strength compared with Tamoxifen, pS2 ([1]; ZR 75-1, presence of 0.1 nM E2): stronger antagonist than Tamoxifen
influence on the pS2 secretion ([1]; ZR 75-1, substance alone, without E2): do not have an influence
fold induction at 0.001 µM [1, 7]: 0.9
fold induction at 0.01 µM [1, 7]: 0.86
fold induction at 0.1 µM [1, 7]: 0.78
fold induction at 1 µM [1, 7]: 0.75
relative amount of pS2 (no hormone added = 1) ([1]; 0.001 µM): 1.96
relative amount of pS2 (no hormone added = 1) ([1]; 0.01 µM): 0.84
relative amount of pS2 (no hormone added = 1) ([1]; 0.1 µM): 0.91
relative amount of pS2 (no hormone added = 1) ([1]; 1 µM): 0.83
fold induction at 0.001 µM [2, 8]: 0.89
fold induction at 0.01 µM [2, 8]: 1
fold induction at 0.1 µM [2, 8]: 0.93
fold induction at 1 µM [2, 8]: 1
function on pS2 expression ([2]; MCF7, 10^-8 M LY 117018, presence of 10^-10 M E2): functions as an antagonist
antagonist strength compared with Tamoxifen, pS2 ([2]; MCF7, presence of 0.1 nM E2): stronger antagonist than Tamoxifen
influence on the pS2 secretion ([2]; MCF7, substance alone, without E2): do not have an influence
relative amount of pS2 (no hormone added = 1) ([2]; 0.001 µM): 2.01
relative amount of pS2 (no hormone added = 1) ([2]; 0.01 µM): 1.11
relative amount of pS2 (no hormone added = 1) ([2]; 0.1 µM): 1.19
relative amount of pS2 (no hormone added = 1) ([2]; 1 µM): 1.18
fold induction at 0.1 µM ([3]; MCF7, 72 h, read-out: relative amount of Cath D (no hormone added = 1)): 0.88
function on Cath D expression ([3]; MCF7, 10^-7 M LY 117018, both in the absence and in the presence of 10^-8 M E2): acts as an estrogen antagonist
function on Cath D expression [4, 9]: functions as an antagonist
antagonist strength compared with Tamoxifen, Cath D ([4]; presence of 0.1 nM E2): stronger antagonist than Tamoxifen
influence on the Cath D secretion ([4]; substance alone, without E2): do not have an influence
function on Cath D expression [5, 9]: functions as an antagonist
antagonist strength compared with Tamoxifen, Cath D ([5]; presence of 0.1 nM E2): stronger antagonist than Tamoxifen
influence on the Cath D secretion ([5]; substance alone, without E2): do not have an influence
Structure (SMILES): O=C(c1ccc(OCCN2CCCC2)cc1)c1c(-c2ccc(O)cc2)sc2cc(O)ccc12 [LY 117018]
inhibition of the expression of pS2 ([1]; ZR 75-1, 10 nM LY 117018 and 0.1 nM E2): inhibited down to the same level as in the absence of added hormone
inhibition of the expression of pS2 ([2]; MCF7, 10 nM LY 117018 and 0.1 nM E2): inhibited down to the same level as in the absence of added hormone
inhibition of the expression of Cath D ([4]; 10 nM LY 117018 and 0.1 nM E2): inhibited down to same level as in the absence of added hormone
inhibition of the expression of Cath D ([5]; 10 nM LY 117018 and 0.1 nM E2): inhibited down to same level as in the absence of added hormone
inhibition of growth ([6]; 0.1 nM E2 and 10 nM LY 117018): inhibited down to the same level as in the absence of added hormone
function on growth ([6]; 10^-7 M LY 117018, presence of 10^-10 M E2): functions as an antagonist
activity at 1 µM ([6]; Homo sapiens, ZR-75-1, 144 h, + 10^-6 M LY 117018, -E2, 6 days, read-out: relative amount of ATP (no hormone added = 1)): 69%
activity at 0.1 µM ([6]; Homo sapiens, ZR-75-1, 144 h, + 10^-7 M LY 117018, -E2, 6 days, read-out: relative amount of ATP (no hormone added = 1)): 99%
activity at 0.01 µM ([6]; Homo sapiens, ZR-75-1, 144 h, + 10^-8 M LY 117018, -E2, 6 days, read-out: relative amount of ATP (no hormone added = 1)): 89%
activity at 0.001 µM ([6]; Homo sapiens, ZR-75-1, 144 h, + 10^-9 M LY 117018, -E2, 6 days, read-out: relative amount of ATP (no hormone added = 1)): 103%
antagonist strength compared with Tamoxifen, growth ([6]; presence of 0.1 nM E2): stronger antagonist than Tamoxifen
